Reference: patent publication US9409898B2, “Substituted pyrazole compounds as CRAC modulators” (LUPIN LIMITED, priority 2012, dated 2016)
pIC50: −log10 of the molar value.

system: IL-2 secretion; assay: Inhibition of IL-2 secretion in PHA-stimulated Jurkat T cells (ELISA); format: cell-based; conditions: Homo sapiens, PHA stimulation, 20 to 24 hours, IL-2 by ELISA
Method: The CRAC channel modulatory activity of the compounds were thus evaluated by measuring the secretion of IL-2 by antigen stimulated T-cells in vitro. Alternatively, such activity can also be evaluated by assay methods known to one skilled in the art.
Inhibition of IL-2 secretion: Jurkat T cells were seeded at a density of 0.5 to 1 million cells per well in RPMI medium. Test compounds from this invention were added to the cells at different concentrations. This was followed by the addition of PHA, a T cell mitogen after 10 minutes. The cells were then incubated for 20 to 24 hours in a CO2 incubator at 37° C. After incubation with the compounds, cells were centrifuged, the supernatant was collected and processed for ELISA to quantitate the amount of IL-2 secreted. A commercial ELISA kit (R&D Systems, Inc. Minneapolis, Minn., USA) was used to estimate the IL-2 concentrations. Amount of IL-2 secreted by cells stimulated with PHA was considered as a 100% maximal signal and the decrease in amount of IL-2 secreted by cells treated with the test compounds was expressed as percent inhibition of the maximal signal. The dose response data was analyzed using 4-parametric sigmoidal dose response (variable slope) curve—fit.

pIC50 | SMILES
> 7.00 | Cn1nc(-c2cc(C(F)(F)F)n(-c3ccc(NC(=O)c4cccc(F)c4F)nc3)n2)oc1=O [Example 42, 2,3-Difluoro-N-(5-(3-(4-methyl-5-oxo-4,5-dihydro-1,3,4-oxadiazol-2-yl)-5-(trifluoromethyl)-1H-pyrazol-1-yl)pyridin-2-yl)benzamide]
> 7.00 | CC1(C)ON=C(c2cc(C(F)(F)F)n(-c3ccc(NC(=O)c4c(F)cccc4F)cn3)n2)C1=O [Example 14, N-(6-(3-(5,5-Dimethyl-4-oxo-4,5-dihydroisoxazol-3-yl)-5-(trifluoromethyl)-1H-pyrazol-1-yl)pyridin-3-yl)-2,6-difluorobenzamide]
6.00 to 7.00 | Cn1c(-c2cc(C(F)(F)F)n(-c3ccc(NC(=O)c4c(F)cccc4F)cn3)n2)noc1=O [Example 19, 2,6-Difluoro-N-(6-(3-(4-methyl-5-oxo-4,5-dihydro-1,2,4-oxadiazol-3-yl)-5-(trifluoromethyl)-1H-pyrazol-1-yl)pyridin-3-yl)benzamide]
> 7.00 | CC1(C)ON=C(c2cc(C(F)(F)F)n(-c3ccc(NC(=O)c4c(F)cccc4Cl)cn3)n2)C1=O [Example 15, 2-Chloro-N-(6-(3-(5,5-dimethyl-4-oxo-4,5-dihydroisoxazol-3-yl)-5-(trifluoromethyl)-1H-pyrazol-1-yl)pyridin-3-yl)-6-fluorobenzamide]
6.00 to 7.00 | Cn1nc(-c2cc(C3CC3)nn2-c2ccc(NC(=O)c3c(F)cccc3F)cn2)oc1=O [Example 30, N-(6-(3-Cyclopropyl 5-(4-methyl-5-oxo-4,5-dihydro-1,3,4-oxadiazol-2-yl)-1H-pyrazol-1-yl)pyridin-3-yl)-2,6-difluorobenzamide]
> 7.00 | Cc1cccc(F)c1C(=O)Nc1ccc(-n2nc(-c3nn(C)c(=O)o3)cc2C(F)(F)F)nc1 [Example 10, 2-Fluoro-6-methyl-N-(6-(3-(4-methyl-5-oxo-4,5-dihydro-1,3,4-oxadiazol-2-yl)-5-(trifluoromethyl)-1H-pyrazol-1-yl)pyridin-3-yl)benzamide]
6.00 to 7.00 | CC1(C)COC(c2cc(C(F)(F)F)n(-c3ccc(NC(=O)c4c(F)cccc4F)cn3)n2)=N1 [Example 21, N-(6-(3-(4,4-Dimethyl-4,5-dihydrooxazol-2-yl)-5-(trifluoromethyl)-1H-pyrazol-1-yl)pyridin-3-yl)-2,6-difluorobenzamide]
6.00 to 7.00 | CC1(C)COC(c2cc(C(F)(F)F)n(-c3ccc(NCc4c(F)cccc4F)cn3)n2)=N1 [Example 28, N-(2,6-Difluorobenzyl)-6-(3-(4,4-dimethyl-4,5-dihydrooxazol-2-yl)-5-(trifluoromethyl)-1H-pyrazol-1-yl)pyridin-3-amine]
6.00 to 7.00 | Cn1nc(-c2cc(C3CC3)n(-c3ccc(NC(=O)c4c(F)cccc4F)cn3)n2)oc1=O [Example 29, N-(6-(5-Cyclopropyl-3-(4-methyl-5-oxo-4,5-dihydro-1,3,4-oxadiazol-2-yl)-1H-pyrazol-1-yl)pyridin-3-yl)-2,6-difluorobenzamide]
> 7.00 | Cn1nc(-c2cc(C(F)(F)F)n(-c3ccc(NCc4c(F)cccc4F)cn3)n2)oc1=O [Example 22, 5-(1-(5-((2,6-Difluorobenzyl)amino)pyridin-2-yl)-5-(trifluoromethyl)-1H-pyrazol-3-yl)-3-methyl-1,3,4-oxadiazol-2(3H)-one]
6.00 to 7.00 | COC(=O)C1(C)CC(c2cc(C(F)(F)F)n(-c3ccc(NC(=O)c4c(F)cccc4F)cn3)n2)=NO1 (stereo not shown) [Example 35, Methyl 3-(1-(5-(2,6-difluorobenzamido)pyridin-2-yl)-5-(trifluoromethyl)-1H-pyrazol-3-yl)-5-methyl-4,5-dihydroisoxazole-5-carboxylate]
> 7.00 | Cn1nc(-c2cc(C(F)F)n(-c3ccc(NC(=O)c4c(F)cccc4F)cn3)n2)oc1=O [Example 11, N-(6-(5-(Difluoromethyl)-3-(4-methyl-5-oxo-4,5-dihydro-1,3,4-oxadiazol-2-yl)-1H-pyrazol-1-yl)pyridin-3-yl)-2,6-difluorobenzamide]
> 7.00 | Cn1nc(-c2cc(C(F)(F)F)n(-c3ccc(NCc4c(F)cccc4Cl)nc3)n2)oc1=O [Example 52]
